Laboratory results reported in patent publication US8486996B2, “Aroylfuranes and aroylthiophenes” (Basilea Pharmaceutica AG, priority 2006, dated 2013).
Like-named read-outs stand apart in the source and are kept apart here.

What was measured:
[1] = Hoechst 33342 nuclear staining (48 h read-out); type: cell-based
Procedure, shortened: (§1)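 Adherent cells pre-spread 24 h before dosing, suspension cells dosed at seeding; compounds at 0.001 μM-10 μM final, 48 h at culture conditions. Hoechst 33342 (2-5 μg/ml) added for 30 min, then fluorescence microscopy scoring of apoptotic nuclear fraction and apoptosis-specific morphology, reported as scores A-D.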

[2] = system: tumor cells; test: Hoechst 33342 nuclear staining (48 h read-out); type: cell-based
Procedure, shortened: as §1

[3] = MTS proliferation assay (72 h read-out); type: cell-based; settings: Homo sapiens, MRC5 cells
Procedure, shortened: (§2)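 Viability was read by MTS absorbance at 492 nm after 3 h with reagent. Before that, cells plated a day earlier at 1.5×10^3–10^4 per well had been incubated with test compound at final concentrations of 0.001–10 μM for 72 h; activity is given as category scores A–D.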

[4] = system: tumor cells; test: MTS proliferation assay (72 h read-out); type: cell-based
Procedure, shortened: as §2

[5] = Mitochondrial membrane potential, JC-1 (read-out 48 h); type: cell-based; settings: PBL, JC-1, 48 h
Procedure, shortened: (§3)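 Tumor cells were treated with test compounds (adherent cells after 24 h of attachment, suspension cells immediately), medium holding up to 5% DMSO. After 48 h, JC-1 (2-5 μg/ml in added medium) was applied for 30 min. Fluorescence microscopy (FITC/TRITC filters) scored the fraction of cells with dissipated mitochondrial membrane potential as categories A-D.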

[6] = system: tumor cells; test: as above; type: cell-based; settings: JC-1, 48 h
Procedure, shortened: as §3

[7] = Homo sapiens, MRC5 cells, read-out: Hoechst 33342 nuclear staining EC50, MRC5
[8] = PBL, read-out: Hoechst 33342 nuclear staining EC50, PBL
[9] = Homo sapiens, HeLa cells, read-out: Hoechst 33342 nuclear staining EC50, HeLa
[10] = Homo sapiens, Jurkat cells, read-out: Hoechst 33342 nuclear staining EC50, Jurkat
[11] = Jily cells, read-out: Hoechst 33342 nuclear staining EC50, Jily
[12] = Homo sapiens, HT-1080, HT1080 cells, read-out: MTS proliferation assay IC50, HT1080
[13] = Homo sapiens, HeLa cells, read-out: MTS proliferation assay IC50, HeLa
[14] = Jily cells, read-out: MTS proliferation assay IC50, Jily
[15] = Homo sapiens, HeLa cells, read-out: Mitochondrial membrane potential (read-out 48 h) HeLa
[16] = Homo sapiens, Jurkat cells, read-out: Mitochondrial membrane potential (read-out 48 h) Jurkat
[17] = Homo sapiens, MCF7 cells, read-out: Mitochondrial membrane potential (read-out 48 h) MCF7
[18] = Jily cells, read-out: Mitochondrial membrane potential (read-out 48 h) Jily
[19] = Homo sapiens, Jurkat cells, read-out: MTS proliferation assay IC50, Jurkat

| EC50 [1, 8] [µM] | EC50 [2, 9] [µM] | EC50 [2, 10] [µM] | EC50 [2, 11] [µM] | IC50 [4, 12] [µM] | IC50 [4, 13] [µM] | IC50 [4, 14] [µM] | EC50 [5] [µM] | EC50 [6, 15] [µM] | EC50 [6, 16] [µM] | EC50 [6, 17] [µM] | EC50 [6, 18] [µM] | melting point [°C] | IC50 [4, 19] [µM] | SMILES | EC50 [1, 7] [µM] | IC50 [3] [µM] |
| --- | --- | --- | --- | --- | --- | --- | --- | --- | --- | --- | --- | --- | --- | --- | --- | --- |
| > 1 | 0.1 to 1 | 0.1 to 1 | 0.1 to 1 | 0.1 to 1 | 0.1 to 1 | 0.1 to 1 | > 1 | 0.1 to 1 | 0.1 to 1 | > 1 | 0.1 to 1 | 144 to 146 | – | CCOc1ccc(N)cc1C(=O)c1oc2ccc(Cl)cc2c1N [Example 7] | > 1 | > 1 |
| > 1 | 0.01 to 0.1 | 0.01 to 0.1 | 0.01 to 0.1 | 0.01 to 0.1 | 0.01 to 0.1 | < 0.01 | > 1 | 0.01 to 0.1 | 0.01 to 0.1 | 0.01 to 0.1 | 0.01 to 0.1 | 110 to 112 | < 0.01 | Cc1ccc(OC(C)C)c(C(=O)c2oc3ccc(Cl)cc3c2N)c1 [Example 16] | 0.01 to 0.1 | 0.01 to 0.1 |
| > 1 | 0.01 to 0.1 | 0.01 to 0.1 | 0.01 to 0.1 | < 0.01 | 0.01 to 0.1 | < 0.01 | > 1 | 0.01 to 0.1 | 0.01 to 0.1 | 0.01 to 0.1 | 0.01 to 0.1 | 140 to 142 | < 0.01 | CCOc1ccc(Cl)cc1C(=O)c1oc2ccc(Cl)cc2c1N [Example 17] | 0.01 to 0.1 | < 0.01 |
| > 1 | 0.1 to 1 | 0.01 to 0.1 | 0.01 to 0.1 | 0.01 to 0.1 | 0.1 to 1 | 0.01 to 0.1 | > 1 | 0.1 to 1 | 0.01 to 0.1 | 0.1 to 1 | 0.01 to 0.1 | 136 to 138 | 0.01 to 0.1 | CCOc1ccc(C(=O)OC)cc1C(=O)c1oc2ccc(Cl)cc2c1N [Example 20] | > 1 | – |
| > 1 | > 1 | > 1 | > 1 | > 1 | > 1 | > 1 | > 1 | > 1 | > 1 | > 1 | > 1 | 110 to 112 | > 1 | CCOc1ccc(NC(C)=O)cc1C(=O)c1oc2ccc(Cl)cc2c1N [Example 21] | > 1 | > 1 |
| > 1 | > 1 | 0.1 to 1 | 0.1 to 1 | > 1 | > 1 | 0.1 to 1 | > 1 | > 1 | 0.1 to 1 | > 1 | > 1 | 132 to 133 | 0.1 to 1 | CCOc1cc(OC)c(Br)cc1C(=O)c1oc2ccc(Cl)cc2c1N [Example 23] | > 1 | > 1 |
| > 1 | > 1 | > 1 | > 1 | > 1 | > 1 | > 1 | > 1 | > 1 | > 1 | > 1 | > 1 | 121 to 124 | > 1 | CCOc1c(OC)cccc1C(=O)c1oc2ccc(Cl)cc2c1N [Example 24] | > 1 | > 1 |
| > 1 | > 1 | 0.1 to 1 | 0.1 to 1 | > 1 | > 1 | 0.1 to 1 | > 1 | > 1 | 0.1 to 1 | > 1 | 0.1 to 1 | 54 | 0.1 to 1 | CCOc1c(C)cccc1C(=O)c1oc2ccc(Cl)cc2c1N [Example 25] | > 1 | > 1 |
| > 1 | 0.01 to 0.1 | < 0.01 | 0.01 to 0.1 | 0.01 to 0.1 | 0.01 to 0.1 | 0.01 to 0.1 | > 1 | 0.01 to 0.1 | 0.01 to 0.1 | 0.1 to 1 | 0.01 to 0.1 | 174 to 176 | 0.01 to 0.1 | CCOc1ccc(Cl)cc1C(=O)c1oc2nc(C)ccc2c1N [Example 27] | > 1 | 0.01 to 0.1 |
| > 1 | 0.1 to 1 | 0.01 to 0.1 | 0.01 to 0.1 | 0.1 to 1 | 0.1 to 1 | 0.01 to 0.1 | > 1 | 0.1 to 1 | 0.01 to 0.1 | > 1 | 0.1 to 1 | 156 to 158 | 0.01 to 0.1 | CCOc1ccccc1C(=O)c1oc2nc(C)ccc2c1N [Example 28] | > 1 | 0.1 to 1 |
| > 1 | 0.1 to 1 | 0.1 to 1 | 0.1 to 1 | 0.1 to 1 | 0.1 to 1 | 0.1 to 1 | > 1 | 0.1 to 1 | 0.1 to 1 | > 1 | 0.1 to 1 | 168 | 0.1 to 1 | CCOc1ccccc1C(=O)c1oc2cnc(C)cc2c1N [Example 30] | > 1 | > 1 |
| > 1 | 0.01 to 0.1 | 0.01 to 0.1 | 0.01 to 0.1 | 0.01 to 0.1 | 0.01 to 0.1 | 0.01 to 0.1 | > 1 | 0.1 to 1 | 0.01 to 0.1 | > 1 | 0.01 to 0.1 | 162 | 0.01 to 0.1 | CCOc1ccc(F)cc1C(=O)c1oc2cnc(C)cc2c1N [Example 31] | 0.1 to 1 | 0.01 to 0.1 |
| > 1 | > 1 | > 1 | > 1 | > 1 | > 1 | > 1 | > 1 | > 1 | > 1 | > 1 | > 1 | 138 to 142 | > 1 | CCOc1ccccc1C(=O)c1sc2ncccc2c1N [Example 114] | > 1 | > 1 |
| > 1 | > 1 | > 1 | > 1 | > 1 | > 1 | > 1 | > 1 | > 1 | > 1 | > 1 | > 1 | 205 | > 1 | CCOc1ccc(F)cc1C(=O)c1sc2ncc([N+](=O)[O-])cc2c1N [Example 115] | > 1 | > 1 |
| > 1 | 0.01 to 0.1 | 0.01 to 0.1 | 0.01 to 0.1 | 0.1 to 1 | 0.1 to 1 | 0.01 to 0.1 | > 1 | 0.1 to 1 | 0.01 to 0.1 | > 1 | 0.01 to 0.1 | 80 | 0.01 to 0.1 | CCOc1ccc(F)cc1C(=O)c1sc2ncc(N)cc2c1N [Example 116] | 0.01 to 0.1 | 0.1 to 1 |
| > 1 | > 1 | > 1 | > 1 | > 1 | > 1 | > 1 | > 1 | > 1 | > 1 | > 1 | > 1 | 116 | > 1 | CCOc1ccccc1C(=O)c1sc2ncc(N)cc2c1N [Example 117] | > 1 | > 1 |
| > 1 | > 1 | 0.1 to 1 | 0.1 to 1 | – | – | – | > 1 | > 1 | 0.1 to 1 | 0.1 to 1 | – | 156 to 158 | – | CCOc1ccccc1C(=O)COc1nc(C)ccc1C#N [Example 145] | > 1 | – |
| > 1 | 0.1 to 1 | 0.01 to 0.1 | 0.1 to 1 | – | – | – | > 1 | 0.1 to 1 | 0.01 to 0.1 | 0.1 to 1 | – | 138 to 140 | – | CCOc1ccc(Cl)cc1C(=O)COc1nc(C)ccc1C#N [Example 146] | 0.1 to 1 | – |
